According to patent US20260034130A1 (priority 2022, published 2026):
Read-outs that look alike come from different tables or passages of the source.

Assays:
[1] = test system: patients undergoing TKR (total knee replacement); conditions: 25 mg twice daily; cited from earlier work
[2] = test system: patients with acute ischemic stroke or high-risk TIA
Excerpt: As used herein, the “Bleeding Academic Research Consortium (BARC) Type 3 criteria” are: a. Overt bleeding plus hemoglobin drop of 3 to <5 g/dL (provided hemoglobin drop is related to bleed); transfusion with overt bleeding; b. Overt bleeding plus hemoglobin drop ≥5 g/dL (provided hemoglobin drop is related to bleed); cardiac tamponade; bleeding requiring surgical intervention for control; bleeding requiring IV vasoactive agents; or c. Intracranial hemorrhage confirmed by autopsy, imaging, or lumbar puncture; intraocular bleed compromising vision. See, e.g., Roxana Mehran, et al. Standardized Bleeding Definitions for Cardiovascular Clinical Trials, Circulation.
As used herein, the “Bleeding Academic Research Consortium (BARC) Type 5 criteria” are: a. Probable fatal bleeding; or b. Definite fatal bleeding (overt or autopsy or imaging confirmation). See, e.g., Roxana Mehran, et al. Standardized Bleeding Definitions for Cardiovascular Clinical Trials, Circulation.
As used herein, the “Bleeding Academic Research Consortium (BARC) Type 2 criteria” are: any clinically overt sign of hemorrhage that “is actionable” and requires diagnostic studies, hospitalization, or treatment by a health care professional. See, e.g., Roxana Mehran, et al. Standardized Bleeding Definitions for Cardiovascular Clinical Trials, Circulation.
The secondary endpoint of major bleeding was determined by the occurrence of types 3 and 5 bleeding, according to the Bleeding Academic Research Consortium (BARC) classification system. Roxana Mehran, et al. Standardized Bleeding Definitions for Cardiovascular Clinical Trials, Circulation. […] Bleeding was additionally evaluated utilizing International Society on Thrombosis and Haemostasis (ISTH) and PLATelet inhibition and patient Outcomes (PLATO) criteria.
The population for safety analysis includes all participants who received at least one dose of study medication. This is the primary population used in safety analysis and is analyzed according to the treatment assigned at randomization.
Analysis of all safety data will be performed on participants treated with ≥1 dose of double-blind drug. The proportion of participants with major bleeding events (BARC types 3 and 5), as well as BARC-, ISTH-, and PLATO-defined criteria, will be summarized by treatment group. Additional summaries will include characteristics of cerebral microbleeds, hemorrhagic transformation of ischemic stroke, and asymptomatic intracranial bleeding. Adverse event and laboratory data, as well as PK and PD data, will be summarized.

[3] = test system: patients with acute ischemic stroke or high-risk TIA; assay: AXIOMATIC-SSP primary efficacy: composite of new clinical ischemic stroke during treatment and new covert brain infarction detected by MRI on Day 90; format: in vivo, human; conditions: modified ITT
Protocol: The main objective is to determine the dose-response relationship of milvexian in participants with acute ischemic stroke or TIA who are treated with aspirin and clopidogrel. The main secondary objective is to assess the rate of major bleeding in this population compared with placebo.
(§1) The primary efficacy endpoint was the composite of incident ischemic stroke during the treatment period or new covert brain infarction detected by the comparison of 90-day and baseline MRIs. All images were read independently by 2 blinded neuroradiologists, and disagreements were resolved by consensus. […] Clinically overt strokes were determined by site investigators following standardized definitions. Briefly, to qualify as an outcome event, a clinical diagnosis of stroke required a sustained increase in the NIHSS score of ≥3 points that was not explained by other factors, such as infection, or was confirmed by imaging as a new infarct. Covert brain infarction is defined as small ischemic cerebral lesions that are detected on Day 90 MRI in the absence of a symptomatic ischemic stroke event.
All randomized participants will be included in the analysis of the primary endpoint if they have either a symptomatic ischemic stroke event by day 90 or an evaluable MRI at the day 90 visit. Because of the COVID-19 pandemic, all day 90 visit MRIs will be included in the primary analysis, regardless of timing. All other efficacy analyses will be performed on a randomized (intent-to-treat, ITT) population up to day 90.
The population for the primary efficacy endpoint analysis include all randomized participants who have (i) a primary endpoint event (a new ischemic stroke during the study period or a new covert brain infarction detected by MRI on Day 90) or (ii) an evaluable MRI image on Day 90.
The primary efficacy outcome was to assess dose response for the composite of new clinical ischemic stroke during treatment and new covert brain infarction detected by MRI on Day 90 in a modified ITT population (those participants with either a clinical ischemic stroke or a Day 90 MRI).

[4] = test system: patients with acute ischemic stroke or high-risk TIA; assay: AXIOMATIC-SSP clinical (symptomatic) ischemic stroke and undetermined stroke events, all randomized participants; format: in vivo, human
Protocol: as §1, with “event. […]” for “event.”

C[C@@H]1CCC[C@H](n2cnc(-c3cc(Cl)ccc3-n3cc(Cl)nn3)cc2=O)c2cc(ccn2)-c2c(cnn2C(F)F)NC1=O [milvexian, (5R,9S)-9-(4-(5-chloro-2-(4-chloro-1H-1,2,3-triazol-1-yl)phenyl)-6-oxopyrimidin-1(6H)-yl)-21-(difluoromethyl)-5-methyl-21H-3-aza-1(4,2)-pyridina-2(5,4)-pyrazolacyclonaphan-4-one]
efficacy versus enoxaparin in AXIOMATIC-TKR [1]: comparable efficacy to enoxaparin | BARC Type 5 (fatal) bleeding, subjects n ([2]; 25 mg BID, N = 313): 0 | BARC Type 5 bleeding, Incidence Rate (n/N %) ([2]; 25 mg BID, N = 313): (0) % | BARC Type 5 (fatal) bleeding, subjects n ([2]; 25 mg QD, N = 325): 0 | BARC Type 5 bleeding, Incidence Rate (n/N %) ([2]; 25 mg QD, N = 325): (0) % | BARC Type 5 (fatal) bleeding, subjects n ([2]; 50 mg BID, N = 325): 0 | BARC Type 5 bleeding, Incidence Rate (n/N %) ([2]; 50 mg BID, N = 325): (0) % | BARC Type 5 (fatal) bleeding, subjects n ([2]; 100 mg BID, N = 306): 0 | BARC Type 5 bleeding, Incidence Rate (n/N %) ([2]; 100 mg BID, N = 306): (0) % | BARC Type 5 (fatal) bleeding, subjects n ([2]; 200 mg BID, N = 344): 0 | BARC Type 5 bleeding, Incidence Rate (n/N %) ([2]; 200 mg BID, N = 344): (0) % | fatal bleeding ([2]; all treatment arms): No fatal bleeding | incidence rate (n/N %) of bleeding endpoint (BARC Type 3 and 5) ([2]; human, in vivo, 90 days): 0.6-1.6% | incidence rate (n/N %) of composite of new clinical ischemic stroke and new covert brain infarction detected by MRI on Day 90 ([3]; 25 mg once daily): 16.2% | incidence rate (n/N %) of composite of new clinical ischemic stroke and new covert brain infarction detected by MRI on Day 90 ([3]; 25 mg twice daily): 18.5% | incidence rate (n/N %) of composite of new clinical ischemic stroke and new covert brain infarction detected by MRI on Day 90 ([3]; 50 mg twice daily): 14.1% | incidence rate (n/N %) of composite of new clinical ischemic stroke and new covert brain infarction detected by MRI on Day 90 ([3]; 100 mg twice daily): 14.7% | incidence rate (n/N %) of composite of new clinical ischemic stroke and new covert brain infarction detected by MRI on Day 90 ([3]; 200 mg twice daily): 16.4% | Subjects With Hemorragic Stroke n ([4]; 25 mg BID, N = 318): 0 | Subjects With Hemorragic Stroke, Incidence Rate (n/N %) ([4]; 25 mg BID, N = 318): (0) % | Subjects With Undetermined Stroke, Incidence Rate (n/N %) ([4]; 25 mg BID, N = 318): (0) % | Symptomatic Stroke Events: Subjects With Event, Incidence Rate (n/N %) ([4]; 25 mg BID, N = 318): (3.8) % | Subjects With Hemorragic Stroke n ([4]; 25 mg QD, N = 328): 0 | Subjects With Hemorragic Stroke, Incidence Rate (n/N %) ([4]; 25 mg QD, N = 328): (0) % | Subjects With Ischemic Stroke n ([4]; 25 mg QD, N = 328): 15 | Subjects With Undetermined Stroke, Incidence Rate (n/N %) ([4]; 25 mg QD, N = 328): (0) % | Symptomatic Stroke Events: Subjects With Event n ([4]; 25 mg QD, N = 328): 15 | Symptomatic Stroke Events: Subjects With Event, Incidence Rate (n/N %) ([4]; 25 mg QD, N = 328): (4.6) % | HR for preventing clinical ischemic strokes vs placebo ([4]; 25 mg twice daily, 95% CI 0.36-1.30): 0.69 | Subjects With Hemorragic Stroke n ([4]; 50 mg BID, N = 328): 0 | Subjects With Hemorragic Stroke, Incidence Rate (n/N %) ([4]; 50 mg BID, N = 328): (0) % | Subjects With Undetermined Stroke, Incidence Rate (n/N %) ([4]; 50 mg BID, N = 328): (0) % | Symptomatic Stroke Events: Subjects With Event, Incidence Rate (n/N %) ([4]; 50 mg BID, N = 328): (4.0) % | Subjects With Hemorragic Stroke n ([4]; 100 mg BID, N = 310): 0 | Subjects With Hemorragic Stroke, Incidence Rate (n/N %) ([4]; 100 mg BID, N = 310): (0) % | Subjects With Undetermined Stroke, Incidence Rate (n/N %) ([4]; 100 mg BID, N = 310): (0) % | Symptomatic Stroke Events: Subjects With Event, Incidence Rate (n/N %) ([4]; 100 mg BID, N = 310): (3.5) % | Subjects With Hemorragic Stroke n ([4]; 200 mg BID, N = 351): 0 | Subjects With Hemorragic Stroke, Incidence Rate (n/N %) ([4]; 200 mg BID, N = 351): (0) % | Subjects With Undetermined Stroke, Incidence Rate (n/N %) ([4]; 200 mg BID, N = 351): (0) % | Symptomatic Stroke Events: Subjects With Event, Incidence Rate (n/N %) ([4]; 200 mg BID, N = 351): (7.7) % | time point for apparent onset of the clinical benefit vs placebo (Kaplan-Meier, time to ischemic stroke) ([4]; pooled doses of milvexian): about 10 days
